# According to ChEMBL document CHEMBL5729501, “Isoindolines as HDAC inhibitors” (2022):
# Biological target: T1, Histone deacetylase 11 (Homo sapiens, UniProt Q96DB2)
# T1 sequence (Q96DB2 whole entry): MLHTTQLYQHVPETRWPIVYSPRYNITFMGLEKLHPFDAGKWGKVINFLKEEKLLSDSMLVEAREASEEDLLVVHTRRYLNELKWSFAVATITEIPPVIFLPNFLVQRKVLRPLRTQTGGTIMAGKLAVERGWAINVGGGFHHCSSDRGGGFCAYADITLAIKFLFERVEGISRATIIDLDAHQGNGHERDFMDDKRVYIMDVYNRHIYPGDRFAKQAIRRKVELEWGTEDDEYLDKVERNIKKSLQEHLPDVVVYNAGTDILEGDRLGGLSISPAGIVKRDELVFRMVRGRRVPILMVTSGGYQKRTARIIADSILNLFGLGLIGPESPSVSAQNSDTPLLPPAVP
# Assay: In Vitro Histone Deacetylase Assay II: The measurement of HD AC 11 deacetylase activity was performed using an electrophoretic mobility shift assay by Nanosyn (Santa Clara, Calif.). Full length human recombinant HD AC 11 protein was expressed in baculoviral system and purified by affinity chromatography. The enzymatic reactions were assembled in 384 well plates in a total volume of 25 μL in a reaction buffer composing: 100 mM HEPES, pH 7.5, 25 mM KCl, 0.1% bovine serum albumin, 0.01% Triton X-100, 1% DMSO (from compounds), 2 μM of the fluorescently labeled peptide substrate and enzyme. The enzyme was added at a final concentration of 10 nM. The peptide substrate FAM-RHKK(tri-fluor-Ac)—NH2 was used. The compounds were tested at 12 concentrations spaced by 3× dilution intervals. Negative control samples (0%-inhibition in the absence of inhibitor) and positive control samples (100%-inhibition) were assembled in replicates of four in each assay plate. The reactions were incubated at 25° C. and quenched by the addition of 45 μL of termination buffer (100 mM HEPES, pH 7.5, 0.01% Triton X-100, 0.05% SDS).The terminated assay plates were analyzed on LabChip® 3000 microfluidic electrophoresis instrument (Perkin Elmer/Caliper Life Sciences). The fluorescence intensity of the electrophoretically separated de-acetylated product and substrate peptide was measured. […]
structure (smiles),measurement,value
O=C(NO)c1cccc2c1CN(c1nc3ccccc3[nH]1)C2,IC50,< 500 nM
